The target in experiment [1] is T1, AT1 L112A receptor (Rattus norvegicus, UniProt P25095, L112A).
T1 construct: expressed in transfected cells; host or cells: COS7
T1 sequence (P25095 1-359 L112A): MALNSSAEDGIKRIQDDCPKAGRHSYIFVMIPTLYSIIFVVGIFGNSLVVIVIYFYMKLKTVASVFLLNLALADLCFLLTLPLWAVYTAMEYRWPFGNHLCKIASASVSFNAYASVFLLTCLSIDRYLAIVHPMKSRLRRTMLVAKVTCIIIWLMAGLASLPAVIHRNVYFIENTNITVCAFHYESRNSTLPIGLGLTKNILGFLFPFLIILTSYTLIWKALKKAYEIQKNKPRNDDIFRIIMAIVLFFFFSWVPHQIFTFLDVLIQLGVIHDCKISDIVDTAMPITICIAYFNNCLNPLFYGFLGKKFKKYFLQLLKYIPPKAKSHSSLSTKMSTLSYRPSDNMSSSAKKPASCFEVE
The experiment is described as follows: IP production assay in COS7 cells expressing AT1-L112A receptor. The experiment is classed as cell-based. The conditions noted are these: 1 µM ligands or 0.1 µM Ang II, 30 min, n = 5, vs. (-). How it is done:
The synthetic rat AT1 receptor gene, which was cloned in the shuttle expression vector pMT-2, was used for expression and mutagenesis, as described previously. […] In the experiments, cells were grown without a cell-growth supplement. To express the AT1 receptor protein, 10 µg of purified plasmid DNA per 10^7 cells was used in the transfection. Wild-type and mutated AT1 receptors were transiently transfected into cells using Lipofectamine 2000 liposomal reagent (Roche Applied Science, Penzberg, Germany). Cells were plated and grown and were 70–90% confluent at the time of transfection. We incubated plasmid DNA (10 µg)–lipid (10 µL) complexes for 5 min at room temperature and added and incubated the complexes with cells for 24 h. We then analyzed the parameters in transfected cells. […] Transfected cells that had been cultured for 48–72 h were harvested. Cell membranes were prepared using the nitrogen Parr bomb disruption or freeze–thaw methods.
Ligand (such as agonist or antagonist)-induced IP production through the AT1 receptor in transfected COS7 cells transiently expressing the AT1 receptor was measured to evaluate cell signaling as a second messenger for controlling blood pressure, since the increases in the intracellular Ca^2+ concentration were the result of IP accumulation, which indicated vasoconstriction. As a surrogate model with higher levels of AT1 receptor expression, COS7 cells are suitable for IP measurement because it is easy to detect differences in IP production. Cells were labeled for 24 h with [^3H]-myoinositol at 37 °C in DMEM containing 10% FBS. Next, the cells were washed with buffer 3 times and incubated with a medium containing 10 mM LiCl for 20 min; 0.1 µM Ang II or 1 µM ligands were added and incubation was continued for another 30 min at 37 °C. After incubation, the medium was removed, and total soluble IP was extracted from the cells using the perchloric acid extraction method, as described previously. Cells were plated at a field density of 5 × 10^3 cells/cm^2 in 60 mm dishes and cultured in a fresh growth medium at 37 °C in a DMEM 5% CO2 incubator. […] The culture medium was changed 48 h after transfection and 1.5 mL of 1 μCi/mL of [^3H]-myoinositol was added to each 60-mm dish at 37 °C in DMEM containing 10% FBS. After labeling, the cells were washed with buffer 3 times and incubated with a medium containing 10 mM LiCl for 20 min. The indicated concentration of ligands was added and incubation was continued for an additional 30 min at 37 °C. After incubation, the medium was removed, and total soluble IP was extracted from the cells using the perchloric acid extraction method. Total IP production was expressed as the sum of radioactivity, as described previously.

For experiment [2], the target named is T1, AT1 L112A receptor. The experiment is described as follows: Competition binding study, 125I-[Sar1,Ile8]Ang II, AT1 L112A receptor. To be noted: competition with 125I-[Sar1,Ile8]Ang II, n = 3, mean ± standard error, read-out: Binding affinity (Kd). The source says: We mutated four amino acids in transmembrane (TM) III, VI, and VII in the AT1 receptor (L112A, Q257A, Y292A, and N295A receptors). We determined the mutation sites of the AT1 receptor according to ARB, which produced olmesartan derivatives with different interactions and functions toward the AT1 receptor, as previously reported by Zhang et al., since the additional 4-hydroxybenzyl groups of R781253 and R794847 were predicted to extend to a sub-pocket on the bottom of the AT1 receptor ligand-binding pocket consisting of Leu^112 and Gln^257. In addition, since the biased ligand TRV027 induced changes near the NPxxY motif in TM domain 7 that are related to receptor activation, Tyr^292 and Asn^295 in the AT1 receptor were mutated.
The synthetic rat AT1 receptor gene, which was cloned in the shuttle expression vector pMT-2, was used for expression and mutagenesis, as described previously. COS7 cells (No. CRL-1651, ATCC, Manassas, VA, USA) were cultured in 10% fetal bovine serum (FBS) and penicillin- and streptomycin-supplemented Dulbecco’s modified Eagle’s essential medium (PS-DMEM) in 5% CO2 at 37 °C. In the experiments, cells were grown without a cell-growth supplement. To express the AT1 receptor protein, 10 µg of purified plasmid DNA per 10^7 cells was used in the transfection. […] We then analyzed the parameters in transfected cells. […]
The Kd (nM) values of receptor binding were determined with ^125I-[Sar^1, Ile^8]AngII-binding experiments under equilibrium conditions. Binding kinetics were determined following the methods described in the literature. […] Ang II was determined in the presence of a high concentration (10^−6 M) of unlabeled [Sar^1, Ile^8]. […] The radioactivity trapped on the filters was quantified using an automatic γ-counter. The percentage (%) of specific binding of ^125I-[Sar^1, Ile^8]Ang II was calculated using the following formula: 100 × (% total binding of ^125I-[Sar^1, Ile^8]Ang II—nonspecific binding of ^125I-[Sar^1, Ile^8]Ang II)/(% total binding of ^125I-[Sar^1, Ile^8]Ang II).

With `CCCc1nc(C(C)(C)O)c(C(N)=O)n1Cc1ccc(-c2cc(Cc3ccc(O)cc3)ccc2-c2nnn[nH]2)cc1` [R794847], the “Effect on IP production” value on AT1 L112A receptor [1] was “none of the compounds (R239470, R781253, and R794847) affected IP production”.
Turning to `CCCc1nc(C(C)(C)O)c(C(N)=O)n1Cc1ccc(-c2ccccc2-c2nnn[nH]2)cc1` [R239470], the “Effect on IP production” value at AT1 L112A receptor [1] is “none of the compounds (R239470, R781253, and R794847) affected IP production”. In addition, the Kd at AT1 L112A receptor [2] turned out to be 0.037 ± 0.012 µM.
For the molecule `CCCc1nc(C(C)(C)O)c(C(=O)O)n1Cc1ccc(-c2ccccc2-c2nnn[nH]2)cc1` [Olmesartan, olmesartan], the “Effect on IP production” value on AT1 L112A receptor [1] was “significant reduction in basal IP production levels”.
As for `CCCc1nc(C(C)(C)O)c(C(=O)O)n1Cc1ccc(-c2cc(Cc3ccc(O)cc3)ccc2-c2nnn[nH]2)cc1` [R781253], the “Effect on IP production” value on AT1 L112A receptor [1] was “none of the compounds (R239470, R781253, and R794847) affected IP production”. In addition, the Kd on AT1 L112A receptor [2] is 0.023 ± 0.007 µM.

(Values after article PMC10216478, “Development of a Non-Peptide Angiotensin II Type 1 Receptor Ligand by Structural Modification of Olmesartan as a Biased Agonist” (Biomedicines, 2023).)
